{"source": "patent US9896437B2", "about": "“Diarylhydantoin compounds” (The Regents of the University of California, priority 2007, dated 2018)", "key": {"hormone refractory LAPC4": {"tested_on": "hormone refractory LAPC4", "assay": "Hormone refractory LAPC4 xenograft model", "settings": "compared with vehicle", "text": "Compounds can also be tested in another xenograft model of hormone refractory prostate cancer, hormone refractory LAPC4. This model is established from passaging of hormone sensitive prostate cancer in castrated mice, which mimics the clinical progression of prostate cancer."}, "[1]": {"tested_on": "LNCaP cells with overexpressed AR (LN-AR)", "assay": "MTS assay of growth of LNCaP-AR cells", "experimental": "LNCaP-AR cells can be maintained in Iscove's medium containing 10% FBS. The compounds are examined for their effect on growth of hormone refractory prostate cancer cells. Overexpressed LNCaP cells are used because these cells behave as hormone refractory prostate cancer cells in vitro and in vivo. Mitochondria activity by MTS assay is measured, a surrogate for growth. LNCaP cells with overexpressed AR (LN-AR) are maintained in Iscove's medium containing 10% FBS. Two days prior to drug treatment, the cells are grown in Iscove's medium containing 10% CS-FBS to deprive of androgens. The cells are then split and grown in Iscove's medium containing 10% CS-FBS with appropriate concentrations of R1881 and increasing concentrations of the test compounds. After four days incubation, cell growth is monitored by MTS (Promega, Madison, Wis.).\nThe inhibitory effect of compounds on growth of hormone refractory prostate cancer in the presence of 100 pM of R1881 is measured."}, "androgen receptor (AR) [2]": {"tested_on": "androgen receptor (AR)", "type": "cell-based", "text": "For example, the compounds can be subjected to tests using an artificial androgen receptor (AR) response reporter system in a hormone refractory prostate cancer cell line. The prostate cancer LNCaP cells are engineered to stably express about 5-fold higher level of AR than endogenous level. The exogenous AR has similar properties to endogenous AR in that both are stabilized by a synthetic androgen R1881. […] The antagonistic activity of the compounds for which the synthesis is described above can be examined in the presence of 100 pM of R1881. Engineered LNCaP cells (LNCaP-AR, also abbreviated LN-AR) are maintained in Iscove's medium containing 10% fetal bovine serum (FBS). Two days prior to drug treatment, the cells are grown in Iscove's medium containing 10% charcoal-stripped FBS (CS-FBS) to deprive of androgens. The cells are split and grown in Iscove's medium containing 10% CS-FBS with 100 pM of R1881 and increasing concentrations of test compounds. After two days of incubation, reporter activities are assayed.\nTo determine agonistic activities of different compounds, the stimulating activities on androgen receptor (AR) using the AR response reporter as the measure in the LN-AR system in the absence of R1881 can be examined."}, "androgen receptor (AR) [3]": {"tested_on": "androgen receptor (AR)", "type": "cell-based", "description": "The LNCaP-AR cells are a line of lymph node carcinoma of prostate cells transduced with a plasmid that makes express androgen receptors.", "remark": "listed apart in the source"}, "LNCaP cells": {"tested_on": "LNCaP cells", "assay": "MTS assay of growth of parental, hormone sensitive LNCaP cells"}, "androgen receptor (AR) [4]": {"biological_target": "androgen receptor (AR) (Homo sapiens, UniProt P10275, T878A)", "sequence (P10275 whole entry T878A)": "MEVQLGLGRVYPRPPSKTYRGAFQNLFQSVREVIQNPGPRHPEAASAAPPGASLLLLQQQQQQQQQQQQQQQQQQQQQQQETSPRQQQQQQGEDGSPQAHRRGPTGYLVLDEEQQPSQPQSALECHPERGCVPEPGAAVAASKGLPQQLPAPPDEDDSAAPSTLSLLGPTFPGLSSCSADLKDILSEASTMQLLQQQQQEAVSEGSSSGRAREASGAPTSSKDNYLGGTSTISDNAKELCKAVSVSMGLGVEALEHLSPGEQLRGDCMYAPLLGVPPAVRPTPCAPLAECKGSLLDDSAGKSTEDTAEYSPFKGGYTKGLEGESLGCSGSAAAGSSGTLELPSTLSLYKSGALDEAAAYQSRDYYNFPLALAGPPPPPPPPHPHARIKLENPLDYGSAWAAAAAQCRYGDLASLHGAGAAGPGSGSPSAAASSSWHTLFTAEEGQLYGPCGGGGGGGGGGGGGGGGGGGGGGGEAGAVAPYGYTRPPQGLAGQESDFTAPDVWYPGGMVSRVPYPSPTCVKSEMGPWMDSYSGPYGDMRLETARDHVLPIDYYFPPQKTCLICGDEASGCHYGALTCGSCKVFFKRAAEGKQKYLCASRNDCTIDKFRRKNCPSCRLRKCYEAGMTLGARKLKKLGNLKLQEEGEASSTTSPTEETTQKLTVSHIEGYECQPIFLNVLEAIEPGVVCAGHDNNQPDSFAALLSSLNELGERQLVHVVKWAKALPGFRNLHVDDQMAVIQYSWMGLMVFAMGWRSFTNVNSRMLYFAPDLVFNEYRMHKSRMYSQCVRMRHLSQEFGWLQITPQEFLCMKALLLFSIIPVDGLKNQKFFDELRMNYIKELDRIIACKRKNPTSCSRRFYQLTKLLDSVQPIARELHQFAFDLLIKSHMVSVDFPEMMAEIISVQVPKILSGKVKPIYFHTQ", "settings": "parental LNCaP cells"}}, "data": [{"smiles": "CC(O)(CS(=O)(=O)c1ccc(F)cc1)C(=O)Nc1ccc(C#N)c(C(F)(F)F)c1", "note": "(stereo not shown) [Bicalutamide]", "values": [{"measurement": "inhibition of PSA expression", "setting": "hormone refractory LAPC4", "value": "does not inhibit"}, {"measurement": "inhibition of growth", "setting": "hormone refractory LAPC4", "value": "does not inhibit"}, {"measurement": "inhibitory effect on growth of hormone refractory prostate cancer", "setting": "[1]; presence of 100 pM of R1881, MTS", "value": "does not inhibit"}]}, {"smiles": "CC1(C)C(=O)N(c2ccc(C#N)c(C(F)(F)F)c2)C(=S)N1CCCCO", "note": "[RU59063]", "values": [{"measurement": "agonistic activity on AR (AR response reporter)", "setting": "androgen receptor (AR) [2]; LN-AR system, hormone refractory, absence of R1881", "value": "can activate AR"}, {"measurement": "stimulation of PSA expression (agonistic activity)", "setting": "androgen receptor (AR) [3]; hormone refractory prostate cancer, absence of R1881", "value": "can stimulate PSA expression"}]}, {"smiles": "C[C@]1(O)CC[C@H]2[C@@H]3CCC4=CC(=O)CCC4=C3C=C[C@@]21C", "note": "[R1881]", "values": [{"measurement": "reporter activity response to androgen", "setting": "androgen receptor (AR) [2]; LNCaP-AR cells", "value": "responds to low concentration"}, {"measurement": "concentration that strongly induces the secreted PSA level", "setting": "androgen receptor (AR) [3]; LNCaP-AR cells", "value": 25, "unit": "pM"}, {"measurement": "concentration that stimulates growth", "setting": "[1]; AR-overexpressed LNCaP, MTS", "value": 25, "unit": "µM"}, {"measurement": "concentration at which growth is first stimulated", "setting": "LNCaP cells", "value": 100, "unit": "µM"}, {"measurement": "concentration at which PSA is first induced", "setting": "androgen receptor (AR) [4]", "value": 100, "unit": "pM"}]}]}
